Legend:
Assay type in all cases: in vivo
Phytophthora infestans [1] = assay: whole plant or invertebrate; conditions: tomato late blight
Plasmopara viticola = assay: Test B: grape downy mildew, spray 24 h after inoculation (disease rating, 100 = 100% disease control)
From the text: (§1) The test compounds were first dissolved in acetone in an amount equal to 3% of the final volume and then suspended at the desired concentration (in ppm) in acetone and purified water (50/50 mix by volume) containing 250 ppm of the surfactant Trem® 014 (polyhydric alcohol esters). The resulting test suspensions were then used in tests A-E. Spraying a 200 ppm test suspension to the point of run-off on the test plants was the equivalent of a rate of 500 g/ha.
Grape seedlings were inoculated with a spore suspension of Plasmopara viticola (the causal agent of grape downy mildew) and incubated in a saturated atmosphere at 20° C. for 24 h. After a short drying period, the test suspension was sprayed to the point of run-off on the grape seedlings and then moved to a growth chamber at 20° C. for 5 days, after which the test units were placed back into a saturated atmosphere at 20° C. for 24 h. Upon removal, disease ratings were made.
(§2) Results for Tests A-F are given in Table A. In the table, a rating of 100 indicates 100% disease control and a rating of 0 indicates no disease control (relative to the controls). A dash (-) indicates no test results.

[2] = tested on: Erysiphe graminis f. sp. tritici; assay: Test E: wheat powdery mildew, spray the day before inoculation (disease rating, 100 = 100% disease control)
From the text: as §1
The test suspension was sprayed to the point of run-off on wheat seedlings. The following day the seedlings were inoculated with a spore dust of Erysiphe graminis f. sp. tritici, (the causal agent of wheat powdery mildew) and incubated in a growth chamber at 20° C. for 7 days, after which disease ratings were made.
as §2

Phytophthora infestans [3] = assay: whole plant or invertebrate; conditions: tomato late blight; remark: listed apart in the source
[4] = spray 17 h after inoculation, tested at 40 ppm
[5] = spray 24 h after inoculation, tested at 40 ppm
[6] = spray the day before inoculation, tested at 40 ppm
[7] = spray 17 h after inoculation, compounds without asterisk (not 40 or 10 ppm)
[8] = spray 24 h after inoculation, compounds without asterisk (not 40 or 10 ppm)
[9] = spray the day before inoculation, compounds without asterisk (not 40 or 10 ppm)

SMILES	Test D disease rating (100 = 100% disease control, 0 = no disease control) (Phytophthora infestans [1]; [7]) [%]	Test B disease rating (100 = 100% disease control, 0 = no disease control) (Plasmopara viticola; [8]) [%]	Test E disease rating (100 = 100% disease control, 0 = no disease control) [2, 9] [%]	Test C disease rating (100 = 100% disease control, 0 = no disease control) (Phytophthora infestans [3]; [9]) [%]	further results
COc1ccc2c(c1)C(N(C)C(=O)c1csc(C3CCN(C(=O)Cn4nc(C(F)(F)F)cc4C)CC3)n1)CCC2 (centres unmarked) [compound 198]					Test D disease rating (100 = 100% disease control, 0 = no disease control) (Phytophthora infestans [1]; [4]): 99%; Test B disease rating (100 = 100% disease control, 0 = no disease control) (Plasmopara viticola; [5]): 99%; Test E disease rating (100 = 100% disease control, 0 = no disease control) [2, 6]: 0%; Test C disease rating (100 = 100% disease control, 0 = no disease control) (Phytophthora infestans [3]; [6]): 100%
COC(=O)C1CC(N(C)C(=O)c2csc(C3CCN(C(=O)Cn4nc(C(F)(F)F)cc4C)CC3)n2)c2ccccc21 (centres unmarked) [compound 229]	90	97	0	100	
Cc1ccc(C)c(CC(=O)N2CCC(c3nc(C(=O)N(C)C4CCCCc5ccccc54)cs3)CC2)c1 (centres unmarked) [compound 129]	57	0	0	50	
C[C@@H](NC(=O)c1csc(C2CCN(C(=O)Cc3cccc(Br)c3)CC2)n1)C1CCCCC1 [compound 272]					Test D disease rating (100 = 100% disease control, 0 = no disease control) (Phytophthora infestans [1]; sprayed 17 h after inoculation, unmarked compounds (no asterisk, not 40 or 10 ppm)): 0; Test B disease rating (100 = 100% disease control, 0 = no disease control) (Plasmopara viticola; sprayed 24 h after inoculation, unmarked compounds (no asterisk, not 40 or 10 ppm)): 14; Test E disease rating (100 = 100% disease control, 0 = no disease control) ([2]; sprayed the day before inoculation, 7 days at 20° C., unmarked compounds (no asterisk, not 40 or 10 ppm)): 0; Test C disease rating (100 = 100% disease control, 0 = no disease control) (Phytophthora infestans [3]; sprayed the day before inoculation, unmarked compounds (no asterisk, not 40 or 10 ppm)): 50
Cc1ccc(C)c(CC(=O)N2CCC(c3nc(C(=O)N(C)[C@H](C)c4cccc(C(F)(F)F)c4)cs3)CC2)c1 [compound 56]	0	31	0	93	
Cc1cc(C(F)(F)F)nn1CC(=O)N1CCC(c2csc(C(=O)N(C)[C@@H]3CCCc4ccccc43)n2)CC1 [compound 223]					Test D disease rating (100 = 100% disease control, 0 = no disease control) (Phytophthora infestans [1]; [4]): 99%; Test B disease rating (100 = 100% disease control, 0 = no disease control) (Plasmopara viticola; [5]): 99%; Test E disease rating (100 = 100% disease control, 0 = no disease control) [2, 6]: 0%; Test C disease rating (100 = 100% disease control, 0 = no disease control) (Phytophthora infestans [3]; [6]): 100%
Cc1ccc(C)c(CC(=O)N2CCC(c3nc(C(=O)N(C)C(C)c4cc(C)sc4C)cs3)CC2)c1 (centres unmarked) [compound 112]	99	93	95	100	
Cc1cc(C(F)(F)F)nn1CC(=O)N1CCC(c2nc(C(=O)N(C)[C@@H]3CCCc4ccccc43)no2)CC1 [compound 225]	99	83	0	100	
CC[C@H](c1ccccc1)N(C)C(=O)c1csc(C2CCN(C(=O)Cc3cc(C(F)(F)F)ccc3Cl)CC2)n1 [compound 114]	99	99	0	100	
COc1ccc2c(c1)CCCC2N(C)C(=O)c1csc(C2CCN(C(=O)Cn3nc(C(F)(F)F)cc3C)CC2)n1 (centres unmarked) [compound 197]					Test D disease rating (100 = 100% disease control, 0 = no disease control) (Phytophthora infestans [1]; [4]): 99%; Test B disease rating (100 = 100% disease control, 0 = no disease control) (Plasmopara viticola; [5]): 98%; Test E disease rating (100 = 100% disease control, 0 = no disease control) [2, 6]: 0%; Test C disease rating (100 = 100% disease control, 0 = no disease control) (Phytophthora infestans [3]; [6]): 100%
Cc1cc(C(F)(F)F)nn1CC(=O)N1CCC(c2nc(C(=O)N(C)C(c3ccc(Cl)cc3)C(F)(F)F)cs2)CC1 (centres unmarked) [compound 253]					Test D disease rating (100 = 100% disease control, 0 = no disease control) (Phytophthora infestans [1]; sprayed 17 h after inoculation, tested at 40 ppm (*)): 67; Test B disease rating (100 = 100% disease control, 0 = no disease control) (Plasmopara viticola; sprayed 24 h after inoculation, tested at 40 ppm (*)): 96; Test E disease rating (100 = 100% disease control, 0 = no disease control) ([2]; sprayed the day before inoculation, 7 days at 20° C., tested at 40 ppm (*)): 0; Test C disease rating (100 = 100% disease control, 0 = no disease control) (Phytophthora infestans [3]; sprayed the day before inoculation, tested at 40 ppm (*)): 90
